{
  "source": "patent US20240358693A1",
  "about": "“METHODS OF TREATING PAIN” (Aisa Pharma, Inc., priority 2023, published 2024)",
  "test_system": "participants with SSc-RP",
  "assay": "Scleroderma Health Assessment Questionnaire (SHAQ): disability indices and visual analog scales",
  "assay_type": "in vivo, human",
  "conditions": "Day 12 vs baseline; PP Population, Part A; SSc patients; sensitivity analysis",
  "text": "The standard, validated, patient reported outcome measures tool for SSc patients, the Scleroderma Health Assessment Questionnaire (SHAQ), will be used to assess the participant qualify of life. Details are attached in the Appendix. The participant quality of life will be scored, and a disability index calculated for each questionnaire completed by the patient at Screening and each in-clinic visit. The absolute change in participant quality of life from baseline to the end of each dosing period will be calculated similar to frequency data as before.\nThe SHAQ includes a Raynaud's VAS, which will be reported at screening and each in-clinic visit. The absolute change in Raynaud-VAS, assessed by the participants response to the SHAQ question ‘In the past 7 days, how much have your Raynaud's interfered with your daily activities?’ at baseline and the end of each dosing period will be calculated similar to frequency data as before.\nThe SHAQ is used to calculate a Disability Index to assess the participant qualify of life. The eight categories assessed by the Disability Index are 1) dressing and grooming, 2) arising, 3) eating, 4) walking, 5) hygiene, 6) reach, 7) grip, and 8) common daily activities. For each of these categories, patients report the amount of difficulty they have in performing two or three specific activities.\nThere are four possible responses for the Disability Index questions: • Without any difficulty=0 • With some difficulty=1 • With much difficulty=2 • Unable to do=3. • The highest score reported by the patient for any component question of the eight categories determines the score for that category. • If a component question is left blank or the response is too ambiguous to assign a score, then the score for that category is determined by the remaining completed question(s). • If all component questions are blank or if more than one answer is given, then follow up with the respondent is required. • If the respondent's mark is between the response columns, then move it to the closest one. If it's directly between the two, move it to the higher one.\nEach of the disability items on the SHAQ has a companion aids/devices variable that is used to record what type(s) of assistance, if any, the participant uses for his/her usual activities. These variables (see below) are coded as follows: • 0=No assistance is needed. • 1=A special device is used by the patient in his/her usual activities. • 2=The patient usually needs help from another person. • 3=The patient usually needs BOTH a special device AND help from another person.\nThe scoring variables and scoring rules permit the computation of two disability indices, the Standard Disability Index and the Alternative Disability Index.\nThis question results in a new set of category scores that are computed by adjusting the score for each category, if necessary, based on the patient's use of an aid or device or assistance for that category. If either devices and/or help from another person are checked for a category, the score is set to “2”, unless the score is already “3” (i.e., scores of “0” or “1” are increased to “2”). For example, if the highest score for the dressing category is “1”, and the patient says they use a device for dressing, the computed category score would be “2”. The sum of the computed categories scores is then calculated and divided by the number of categories answered. This gives a score in the 0 to 3 range.\nThe aid and device variables are not used to calculate the alternative disability index; it is calculated by adding the scores for each of the categories and dividing by the number of categories answered. This gives a score in the 0 to 3 range.\nThe standard, validated, patient reported outcome measures tool for SSc patients, the SHAQ, was collected at the time points specified in the study schedules (FIG. 2 and FIGS. 4A and 4B) to assess the participant's quality of life. The SHAQ included a Raynaud's VAS that will also be reported separately.",
  "data": [
    {"smiles": "COCCOC(=O)C1=C(C)NC(C)=C(C(=O)OC/C=C/c2ccccc2)C1c1cccc([N+](=O)[O-])c1", "note": "(stereo not drawn) [Pooled Cilnidipine]", "values": [
      {"measurement": "SHAQ Alternative Disability Index, Change from Baseline, Max", "result": 0.38},
      {"measurement": "SHAQ Alternative Disability Index, Change from Baseline, Mean", "result": 0.031},
      {"measurement": "SHAQ Alternative Disability Index, Change from Baseline, Median", "result": 0.000},
      {"measurement": "SHAQ Alternative Disability Index, Change from Baseline, Min", "result": "−0.13"},
      {"measurement": "SHAQ Alternative Disability Index, Change from Baseline, Q1", "result": "−0.125"},
      {"measurement": "SHAQ Alternative Disability Index, Change from Baseline, Q3", "result": 0.125},
      {"measurement": "SHAQ Alternative Disability Index, Percent Change from Baseline, Max", "result": 100.0, "unit": "%"},
      {"measurement": "SHAQ Alternative Disability Index, Percent Change from Baseline, Mean", "result": 9.68, "unit": "%"},
      {"measurement": "SHAQ Alternative Disability Index, Percent Change from Baseline, Median", "result": "−11.11", "unit": "%"},
      {"measurement": "SHAQ Alternative Disability Index, Percent Change from Baseline, Min", "result": "−50.0", "unit": "%"},
      {"measurement": "SHAQ Alternative Disability Index, Percent Change from Baseline, Q1", "result": "−33.33", "unit": "%"},
      {"measurement": "SHAQ Alternative Disability Index, Percent Change from Baseline, Q3", "result": 42.86, "unit": "%"},
      {"measurement": "SHAQ Visual Analogue Scale - Finger Ulcers, Change from Baseline, Max", "result": 0.40},
      {"measurement": "SHAQ Visual Analogue Scale - Finger Ulcers, Change from Baseline, Mean", "result": "−0.643"},
      {"measurement": "SHAQ Visual Analogue Scale - Finger Ulcers, Change from Baseline, Median", "result": 0.000},
      {"measurement": "SHAQ Visual Analogue Scale - Finger Ulcers, Change from Baseline, Min", "result": "−3.20"},
      {"measurement": "SHAQ Visual Analogue Scale - Finger Ulcers, Change from Baseline, Q1", "result": "−1.000"},
      {"measurement": "SHAQ Visual Analogue Scale - Finger Ulcers, Change from Baseline, Q3", "result": 0.000},
      {"measurement": "SHAQ Visual Analogue Scale - Finger Ulcers, Percent Change from Baseline, Max", "result": 133.3, "unit": "%"},
      {"measurement": "SHAQ Visual Analogue Scale - Finger Ulcers, Percent Change from Baseline, Mean", "result": "−17.08", "unit": "%"},
      {"measurement": "SHAQ Visual Analogue Scale - Finger Ulcers, Percent Change from Baseline, Median", "result": "−50.82", "unit": "%"},
      {"measurement": "SHAQ Visual Analogue Scale - Finger Ulcers, Percent Change from Baseline, Min", "result": "−100.0", "unit": "%"},
      {"measurement": "SHAQ Visual Analogue Scale - Finger Ulcers, Percent Change from Baseline, Q1", "result": "−81.37", "unit": "%"},
      {"measurement": "SHAQ Visual Analogue Scale - Finger Ulcers, Percent Change from Baseline, Q3", "result": 47.22, "unit": "%"},
      {"measurement": "SHAQ Visual Analogue Scale - Intestinal Problems, Change from Baseline, Max", "result": 0.60},
      {"measurement": "SHAQ Visual Analogue Scale - Intestinal Problems, Change from Baseline, Mean", "result": "−0.863"},
      {"measurement": "SHAQ Visual Analogue Scale - Intestinal Problems, Change from Baseline, Median", "result": "−0.050"},
      {"measurement": "SHAQ Visual Analogue Scale - Intestinal Problems, Change from Baseline, Min", "result": "−4.40"},
      {"measurement": "SHAQ Visual Analogue Scale - Intestinal Problems, Change from Baseline, Q1", "result": "−1.650"},
      {"measurement": "SHAQ Visual Analogue Scale - Intestinal Problems, Change from Baseline, Q3", "result": 0.150},
      {"measurement": "SHAQ Visual Analogue Scale - Intestinal Problems, Percent Change from Baseline, Max", "result": 40.0, "unit": "%"},
      {"measurement": "SHAQ Visual Analogue Scale - Intestinal Problems, Percent Change from Baseline, Mean", "result": "−43.69", "unit": "%"},
      {"measurement": "SHAQ Visual Analogue Scale - Intestinal Problems, Percent Change from Baseline, Median", "result": "−66.06", "unit": "%"},
      {"measurement": "SHAQ Visual Analogue Scale - Intestinal Problems, Percent Change from Baseline, Min", "result": "−100.0", "unit": "%"},
      {"measurement": "SHAQ Visual Analogue Scale - Intestinal Problems, Percent Change from Baseline, Q1", "result": "−100.00", "unit": "%"},
      {"measurement": "SHAQ Visual Analogue Scale - Intestinal Problems, Percent Change from Baseline, Q3", "result": 30.00, "unit": "%"},
      {"measurement": "SHAQ Visual Analogue Scale - Overall Disease Severity, Change from Baseline, Max", "result": 0.20},
      {"measurement": "SHAQ Visual Analogue Scale - Overall Disease Severity, Change from Baseline, Mean", "result": "−1.450"},
      {"measurement": "SHAQ Visual Analogue Scale - Overall Disease Severity, Change from Baseline, Median", "result": "−1.550"},
      {"measurement": "SHAQ Visual Analogue Scale - Overall Disease Severity, Change from Baseline, Min", "result": "−3.10"},
      {"measurement": "SHAQ Visual Analogue Scale - Overall Disease Severity, Change from Baseline, Q1", "result": "−1.850"},
      {"measurement": "SHAQ Visual Analogue Scale - Overall Disease Severity, Change from Baseline, Q3", "result": "−0.950"},
      {"measurement": "SHAQ Visual Analogue Scale - Overall Disease Severity, Percent Change from Baseline, Max", "result": "−26.8", "unit": "%"},
      {"measurement": "SHAQ Visual Analogue Scale - Overall Disease Severity, Percent Change from Baseline, Mean", "result": "−61.10", "unit": "%"},
      {"measurement": "SHAQ Visual Analogue Scale - Overall Disease Severity, Percent Change from Baseline, Median", "result": "−60.00", "unit": "%"},
      {"measurement": "SHAQ Visual Analogue Scale - Overall Disease Severity, Percent Change from Baseline, Min", "result": "−100.0", "unit": "%"},
      {"measurement": "SHAQ Visual Analogue Scale - Overall Disease Severity, Percent Change from Baseline, Q1", "result": "−76.19", "unit": "%"},
      {"measurement": "SHAQ Visual Analogue Scale - Overall Disease Severity, Percent Change from Baseline, Q3", "result": "−44.12", "unit": "%"},
      {"measurement": "SHAQ Visual Analogue Scale - Pain, Change from Baseline, Max", "result": 0.70},
      {"measurement": "SHAQ Visual Analogue Scale - Pain, Change from Baseline, Mean", "result": "−0.375"},
      {"measurement": "SHAQ Visual Analogue Scale - Pain, Change from Baseline, Median", "result": "−0.250"},
      {"measurement": "SHAQ Visual Analogue Scale - Pain, Change from Baseline, Min", "result": "−2.00"},
      {"measurement": "SHAQ Visual Analogue Scale - Pain, Change from Baseline, Q1", "result": "−0.750"},
      {"measurement": "SHAQ Visual Analogue Scale - Pain, Change from Baseline, Q3", "result": 0.150},
      {"measurement": "SHAQ Visual Analogue Scale - Pain, Percent Change from Baseline, Max", "result": 19.4, "unit": "%"},
      {"measurement": "SHAQ Visual Analogue Scale - Pain, Percent Change from Baseline, Mean", "result": "−23.98", "unit": "%"},
      {"measurement": "SHAQ Visual Analogue Scale - Pain, Percent Change from Baseline, Median", "result": "−41.18", "unit": "%"},
      {"measurement": "SHAQ Visual Analogue Scale - Pain, Percent Change from Baseline, Min", "result": "−55.6", "unit": "%"},
      {"measurement": "SHAQ Visual Analogue Scale - Pain, Percent Change from Baseline, Q1", "result": "−53.33", "unit": "%"},
      {"measurement": "SHAQ Visual Analogue Scale - Pain, Percent Change from Baseline, Q3", "result": 11.54, "unit": "%"},
      {"measurement": "SHAQ Visual Analogue Scale - Raynaud’s, Change from Baseline, Max", "result": 1.50},
      {"measurement": "SHAQ Visual Analogue Scale - Raynaud’s, Change from Baseline, Mean", "result": "−0.438"},
      {"measurement": "SHAQ Visual Analogue Scale - Raynaud’s, Change from Baseline, Median", "result": "−0.600"}
    ]}
  ]
}
